For 31 compounds, IC50 results are on record in patent publication US9481670B2, “Triazine compounds” (Sphaera Pharma PTE. Ltd., priority 2011, dated 2016).

T1 sequence (P42336 whole entry): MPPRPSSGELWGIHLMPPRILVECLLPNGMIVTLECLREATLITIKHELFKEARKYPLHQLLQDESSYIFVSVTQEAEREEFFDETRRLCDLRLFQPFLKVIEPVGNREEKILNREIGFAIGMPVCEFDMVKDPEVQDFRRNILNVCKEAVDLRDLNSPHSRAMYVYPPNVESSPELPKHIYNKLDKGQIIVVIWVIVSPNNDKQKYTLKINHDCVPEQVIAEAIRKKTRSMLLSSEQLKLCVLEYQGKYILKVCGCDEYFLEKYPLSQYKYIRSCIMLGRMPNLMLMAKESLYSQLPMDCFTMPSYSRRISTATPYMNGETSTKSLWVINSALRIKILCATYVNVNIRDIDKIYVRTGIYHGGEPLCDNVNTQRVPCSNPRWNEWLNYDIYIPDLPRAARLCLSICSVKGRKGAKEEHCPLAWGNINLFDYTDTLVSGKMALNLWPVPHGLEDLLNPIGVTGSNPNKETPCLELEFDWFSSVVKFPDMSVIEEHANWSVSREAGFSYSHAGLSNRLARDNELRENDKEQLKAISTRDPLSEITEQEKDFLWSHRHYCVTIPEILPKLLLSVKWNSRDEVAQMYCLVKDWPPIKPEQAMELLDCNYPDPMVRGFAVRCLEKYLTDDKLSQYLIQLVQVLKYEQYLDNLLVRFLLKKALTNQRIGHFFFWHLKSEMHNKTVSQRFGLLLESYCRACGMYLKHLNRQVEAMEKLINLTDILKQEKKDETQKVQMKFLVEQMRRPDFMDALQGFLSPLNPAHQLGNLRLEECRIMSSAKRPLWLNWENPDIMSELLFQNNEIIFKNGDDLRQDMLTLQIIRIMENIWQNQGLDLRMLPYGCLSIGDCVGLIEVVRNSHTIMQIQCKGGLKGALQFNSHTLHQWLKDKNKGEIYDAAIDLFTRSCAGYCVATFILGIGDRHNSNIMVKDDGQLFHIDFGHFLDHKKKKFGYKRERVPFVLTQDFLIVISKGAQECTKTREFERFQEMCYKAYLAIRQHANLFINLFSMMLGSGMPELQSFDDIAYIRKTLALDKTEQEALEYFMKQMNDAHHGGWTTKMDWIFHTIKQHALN
T1 sequence (P27986 whole entry partner): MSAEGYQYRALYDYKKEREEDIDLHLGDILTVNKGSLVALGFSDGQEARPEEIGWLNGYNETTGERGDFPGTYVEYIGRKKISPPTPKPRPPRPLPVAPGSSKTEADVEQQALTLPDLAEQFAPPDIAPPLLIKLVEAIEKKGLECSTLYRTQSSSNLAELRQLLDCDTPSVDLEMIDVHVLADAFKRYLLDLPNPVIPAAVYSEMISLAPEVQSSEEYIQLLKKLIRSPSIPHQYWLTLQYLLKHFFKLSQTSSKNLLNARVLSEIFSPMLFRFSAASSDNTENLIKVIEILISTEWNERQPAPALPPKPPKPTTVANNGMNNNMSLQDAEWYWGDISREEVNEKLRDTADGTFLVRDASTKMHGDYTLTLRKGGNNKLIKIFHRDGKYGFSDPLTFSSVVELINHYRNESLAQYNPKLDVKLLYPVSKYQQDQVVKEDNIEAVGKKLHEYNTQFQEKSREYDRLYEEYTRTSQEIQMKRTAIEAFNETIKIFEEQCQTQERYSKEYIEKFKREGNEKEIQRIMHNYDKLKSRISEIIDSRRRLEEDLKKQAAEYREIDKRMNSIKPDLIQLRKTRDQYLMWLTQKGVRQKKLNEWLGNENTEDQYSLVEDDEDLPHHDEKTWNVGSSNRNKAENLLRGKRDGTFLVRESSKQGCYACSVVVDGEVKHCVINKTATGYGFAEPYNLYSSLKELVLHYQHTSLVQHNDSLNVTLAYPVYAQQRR

The test addresses T1, PI3K alpha (Homo sapiens, UniProt P42336).
T1 construct: purchased Millipore Upstate
Briefly: P110 Alpha TR-FRET Assay (PI3K alpha kinase assay, HTRF Transcreener ADP Assay). In kind it is biochemical. The conditions noted are these: PI3K (WT). The method, then:
PI3K alpha kinase assay may be done using HTRF Transcreener ADP Assay (Cisbio).
Composition of the reaction buffer was as follows 50 mM HEPES, pH 7.5, 5 mM MgCl2, 1 mM DTT, 30 μM Na3VO4. PI3 Kinase was procured from Millipore Upstate. […] ATP was used at final concentration of 10 μM. Corning 384 well white plates were used for the assay.
2 μl of diluted enzyme (50 ng), 3 μl of diluted compound and 5 μl of buffer were added, mixed then incubated for 20 minutes with shaking at 400 rpm. 3 μl of substrate (10 μM of ATP and 5 μM PIP2) were added to initiate the reaction. The samples were incubated for 20 min. At the end of the reaction time 10 μl of the Detection mix (5 μl of ADP-D2 and 5 μl of Anti-ADP-Cryptate) was added and the contents were incubated for 1 h. The reaction plate was directly read in an Envision Multilabel Plate Reader.
(In general: Time-resolved FRET reads energy transfer from a long-lived donor to a nearby acceptor.)
By IC50 is commonly meant the concentration that inhibits the measured activity by half. In turn, “2-8-[4-1,6-5-bis(morpholin-4-yl)-1,3,5-triazin-2-yl]-2H-indazole [Compound 1112]” registered an IC50 below 5 µM.

Turning to `CN(C)C(=O)c1ccc(Oc2nc(-c3cnc(N)s3)nc(N3C4CCC3COC4)n2)cc1` [Compound 1001, 4-8-{[4-1-(2-11-amino-1,3-thiazol-5-yl)-6-5-{3-oxa-8-azabicyclo[3.2.1]octan-8-yl}-1,3,5-triazin-2-yl]oxy}-N,N-dimethylbenzamide], the IC50 is below 5 µM.

The compound `CN(C)C(=O)c1ccc(Oc2nc(-c3cnc(N)s3)nc(N3CCCOCC3)n2)cc1` [Compound 1002, 4-9-{[4-1-(2-17-amino-1,3-thiazol-5-yl)-6-5-(1,4-oxazepan-4-yl)-1,3,5-triazin-2-yl]oxy}-N,N-dimethylbenzamide] gave an IC50 below 5 µM.

For `C[C@H]1COCCN1c1nc(Oc2ccc(C(=O)N(C)C)cc2)nc(-c2cnc(N)s2)n1` [Compound 1003, 4-9-{[4-1-(2-22-amino-1,3-thiazol-5-yl)-6-5-(3-25-methylmorpholin-4-yl)-1,3,5-triazin-2-yl]oxy}-N,N-dimethylbenzamide], the IC50 was below 5 µM. To `CN(C)C(=O)c1ccc(Oc2nc(-c3cnc(N)s3)nc(N3CCOCC3)n2)cc1` [Compound 1004, 4-14-{[4-1-(2-27-amino-1,3-thiazol-5-yl)-6-5-(morpholin-4-yl)-1,3,5-triazin-2-yl]oxy}-N,N-dimethylbenzamide] belongs below 5 µM. For `CS(=O)(=O)N1CCC(COc2nc(-c3cnc(N)nc3)nc(N3CCOCC3)n2)CC1` [Compound 1005, 5-(4-((1-(methylsulfonyl)piperidin-4-yl)methoxy)-6-morpholino-1,3,5-triazin-2-yl)pyrimidin-2-amine] the value was below 5 µM; for `CN(C)C(=O)Cc1ccc(Oc2nc(-c3cnc(N)nc3)nc(N3CCOCC3)n2)cc1` [Compound 1006, 2-26-(4-20-{[4-3-(2-15-aminopyrimidin-5-yl)-6-5-(morpholin-4-yl)-1,3,5-triazin-2-yl]oxy}phenyl)-N,N-dimethylacetamide], below 5 µM; for `Nc1ncc(-c2nc(Nc3nccs3)nc(N3CCOCC3)n2)s1` [Compound 1007, N-(4-(2-aminothiazol-5-yl)-6-morpholino-1,3,5-triazin-2-yl)thiazol-2-amine], below 5 µM. For the compound `CN(C)C(=O)N1CCC(Oc2nc(-c3cnc(N)nc3)nc(N3CCOCC3)n2)CC1` [Compound 1008, 4-14-{[4-1-(2-17-aminopyrimidin-5-yl)-6-5-(morpholin-4-yl)-1,3,5-triazin-2-yl]oxy}-N,N-dimethylpiperidine-1-carboxamide], the IC50 was below 5 µM. To `CN(C)C(=O)c1ccc(Oc2nc(-c3cnc(N)cn3)nc(N3CCOCC3)n2)cc1` [Compound 1009, 4-14-{[4-1-(5-17-aminopyrazin-2-yl)-6-5-(morpholin-4-yl)-1,3,5-triazin-2-yl]oxy}-N,N-dimethylbenzamide] belongs below 5 µM; to `Nc1ccc(-c2nc(Oc3ccc4c(c3)CCC(=O)N4)nc(N3CCOCC3)n2)cn1` [Compound 1010, 6-20-{[4-1-(6-11-ammopyridin-3-yl)-6-5-(morpholin-4-yl)-1,3,5-triazin-2-yl]oxy}-1,2,3,4-tetrahydroquinolin-2-one], below 5 µM; to `CN(C)C(=O)c1ccc(Oc2nc(-c3cnc(N)nc3)nc(N3CCOCC3)n2)cc1` [Compound 1011, 4-14-{[4-1-(2-27-aminopyrimidin-5-yl)-6-5-(morpholin-4-yl)-1,3,5-triazin-2-yl]oxy}-N,N-dimethylbenzamide], below 5 µM. Take `CN(C)C(=O)c1ccc(Oc2nc(-c3ccc(N)nc3)nc(N3C4CCC3COC4)n2)cc1` [Compound 1012, 4-9-{[4-1-(6-12-aminopyridin-3-yl)-6-5-{3-oxa-8-azabicyclo[3.2.1]octan-8-yl}-1,3,5-triazin-2-yl]oxy}-N,N-dimethylbenzamide]: the IC50 was below 5 µM. To `CN(C)C(=O)Cc1cccc(Oc2nc(-c3ccc(N)nc3)nc(N3CCOCC3)n2)c1` [Compound 1013, 2-26-(3-20-{[4-1-(6-11-aminopyridin-3-yl)-6-5-(morpholin-4-yl)-1,3,5-triazin-2-yl]oxy}phenyl)-N,N-dimethylacetamide] belongs below 5 µM.

As to `CN(C)C(=O)c1ccc(Oc2nc(-c3ccc(N)nc3)nc(N3CCCOCC3)n2)cc1` [Compound 1014, 4-21-{[4-1-(6-9-aminopyridin-3-yl)-6-5-(1,4-oxazepan-4-yl)-1,3,5-triazin-2-yl]oxy}-N,N-dimethylbenzamide], the IC50 is below 5 µM. Regarding `CN(C)C(=O)c1cccc(Oc2nc(-c3ccc(N)nc3)nc(N3CCOCC3)n2)c1` [Compound 1015, 3-20-{[4-1-(6-11-aminopyridin-3-yl)-6-5-(morpholin-4-yl)-1,3,5-triazin-2-yl]oxy}-N,N-dimethylbenzamide], the IC50 is below 5 µM. As to `CN(C)C(=O)c1ccc(Oc2nc(-c3cccc4[nH]ncc34)nc(-n3ccnc3)n2)cc1` [Compound 1016, 4-9-{[4-5-(1H-imidazol-1-yl)-6-1-(1H-indazol-4-yl)-1,3,5-triazin-2-yl]oxy}-N,N-dimethylbenzamide], the IC50 is below 5 µM.

On to `CN(C)C(=O)Cc1ccc(Oc2nc(-c3ccc(N)nc3)nc(N3CCOCC3)n2)cc1` [Compound 1017, 2-20-(4-9-{[4-1-(6-12-aminopyridin-3-yl)-6-5-(morpholin-4-yl)-1,3,5-triazin-2-yl]oxy}phenyl)-N,N-dimethylacetamide], for which the IC50 was below 5 µM. To `Cc1cc(-c2nc(Oc3ccc(C(=O)N(C)C)cc3)nc(N3CCOCC3)n2)cnc1N` [Compound 1018, 4-14-{[4-1-(6-27-amino-5-26-methylpyridin-3-yl)-6-5-(morpholin-4-yl)-1,3,5-triazin-2-yl]oxy}-N,N-dimethylbenzamide] belongs below 5 µM; to `CN(C)C(=O)c1ccc(Oc2nc(-c3ccc(NN)nc3)nc(N3CCOCC3)n2)cc1` [Compound 1019, 4-14-{[4-1-(6-26-hydrazinylpyridin-3-yl)-6-5-(morpholin-4-yl)-1,3,5-triazin-2-yl]oxy}-N,N-dimethylbenzamide], below 5 µM; to `Cc1nc(N)ccc1-c1nc(Oc2ccc(C(=O)N(C)C)cc2)nc(N2CCOCC2)n1` [Compound 1020, 4-14-{[4-1-(6-17-amino-2-19-methylpyridin-3-yl)-6-5-(morpholin-4-yl)-1,3,5-triazin-2-yl]oxy}-N,N-dimethylbenzamide], below 5 µM. To `Cc1cc(Oc2nc(-c3ccc(N)nc3)nc(N3CCOCC3)n2)ccc1C(=O)N(C)C` [Compound 1021, 4-20-{[4-1-(6-16-aminopyridin-3-yl)-6-5-(morpholin-4-yl)-1,3,5-triazin-2-yl]oxy}-N,N,2-trimethylbenzamide] belongs below 5 µM. Compound `Cc1cc(N)ncc1-c1nc(Oc2ccc(C(=O)N(C)C)cc2)nc(N2CCOCC2)n1` [Compound 1022, 4-14-{[4-1-(6-17-amino-4-15-methylpyridin-3-yl)-6-5-(morpholin-4-yl)-1,3,5-triazin-2-yl]ioxy}-N,N-dimethylbenzamide] displayed an IC50 above 5 µM.

On to `CS(=O)(=O)N1CCC(COc2nc(-c3ccc(N)nc3)nc(N3CCOCC3)n2)CC1` [Compound 1023, 5-(4-((1-(methylsulfonyl)piperidin-4-yl)methoxy)-6-morpholino-1,3,5-triazin-2-yl)pyridin-2-amine], for which the half-inhibitory concentration (IC50) is below 5 µM.

`CN(C)C(=O)c1ccc(Oc2nc(-c3ccncc3)nc(-c3cccc4[nH]ncc34)n2)cc1` [Compound 1024, 4-9-{[4-1-(1H-indazol-4-yl)-6-5-(pyridin-4-yl)-1,3,5-triazin-2-yl]oxy}-N,N-dimethylbenzamide] returned an IC50 above 5 µM.

In turn, `CN(C)C(=O)N1CC[C@H](COc2nc(-c3ccc(N)nc3)nc(N3CCOCC3)n2)C1` [Compound 1025, 3-21-({[4-3-(6-16-aminopyridin-3-yl)-6-5-(morpholin-4-yl)-1,3,5-triazin-2-yl]oxy}methyl)-N,N-dimethylpyrrolidine-1-carboxamide] gave a half-inhibitory concentration (IC50) below 5 µM. To `CN(C)C(=O)N1CC[C@H](Oc2nc(-c3ccc(N)nc3)nc(N3CCOCC3)n2)C1` [Compound 1026, 3-19-{[4-3-(6-16-aminopyridin-3-yl)-6-5-(morpholin-4-yl)-1,3,5-triazin-2-yl]oxy}-N,N-dimethylpyrrolidine-1-carboxamide] belongs below 5 µM; to `CN(C)C(=O)c1ccc(Oc2nc(-c3ccc(N)nc3)nc(N3CCOCC3)n2)cc1` [Compound 1027, 4-14-{[4-1-(6-17-aminopyridin-3-yl)-6-5-(morpholin-4-yl)-1,3,5-triazin-2-yl]oxy}-N,N-dimethylbenzamide], below 5 µM. For the compound `CN(C)C(=O)N1CCC(Oc2nc(-c3ccc(N)nc3)nc(N3CCOCC3)n2)CC1` [Compound 1028, 4-20-{[4-1-(6-11-aminopyridin-3-yl)-6-5-(morpholin-4-yl)-1,3,5-triazin-2-yl]oxy}-N,N-dimethylpiperidine-1-carboxamide], the IC50 was below 5 µM. With `CN(C)C(=O)c1ccc(Oc2nc(-c3ccc(F)nc3)nc(N3CCOCC3)n2)cc1` [Compound 1029, 4-14-{[4-1-(6-17-fluoropyridin-3-yl)-6-5-(morpholin-4-yl)-1,3,5-triazin-2-yl]oxy}-N,N-dimethylbenzamide], the IC50 is below 5 µM. For `CN(C)C(=O)c1ccc(Oc2nc(-c3cccc(O)c3)nc(N3CCOCC3)n2)cc1` [Compound 1030, 4-14-{[4-1-(3-21-hydroxyphenyl)-6-5-(morpholin-4-yl)-1,3,5-triazin-2-yl]oxy}-N,N-dimethylbenzamide] the value was below 5 µM.
